# “And” between values parts separate entries of the source, which are not always exact repeats. Equal entries are not always repeated.
# Columns and labels:
# [1] = molecular target: T1, BRD4 Bromodomain 2 (BRD4 BD2) (Homo sapiens, UniProt O60885); assay: AlphaScreen binding assay, BRD4 BD2; conditions: His-tagged BRD4 BD2 100 nM, biotinylated H4 (1-21) K5/8/12/16 tetra-acetylated peptide 100 nM, compounds listed under IC50 range headings
# T1 construct: 333-460 were cloned, expressed, and purified to homogeneity
# Method in brief: (§1)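 An AlphaScreen competition format was used with His-BRD4 BD1 or BD2 and biotin-H4 K5/8/12/16-acetyl peptide, each at matched final levels of 50 nM (BD1) or 100 nM (BD2). Incubation in HEPES/NaCl buffer with 0.1% BSA and 0.01% Triton X-100 ran ≥1 h before IC50 determination.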
# [2] = molecular target: T2, BRD4 Bromodomain 1 (BRD4 BD1) (Homo sapiens, UniProt O60885); assay: AlphaScreen binding assay, BRD4 BD1; conditions: His-tagged BRD4 BD1 50 nM, biotinylated H4 (1-21) K5/8/12/16 tetra-acetylated peptide 50 nM, compounds listed under IC50 range headings
# T2 construct: 44-168 and BRD4 BD2
# Method in brief: as §1
# [3] = system: acute myelocytic leukemia (AML) cell line MV4-11; assay: Oncology cell growth assay (3-day proliferation, CellTiter-Glo); assay type: cell-based; conditions: Homo sapiens, MV4-11, 72 h, MV4-11 cells, 3000 cells/well, compounds listed under IC50 range headings, read-out: MV411 IC50 (gIC50, inhibition of proliferation)
# Method in brief: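 Luminescence from CellTiter-Glo served as the growth read-out after MV4-11 cells (3000/well) were cultured with compound for 72 hours. Final concentrations spanned 10 to 0.0045 μM in 3-fold steps. gIC50 values were derived by four-parameter logistic fitting relative to DMSO and cell-free controls.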
Structure (SMILES),IC50 [1],IC50 [2],IC50 [3]
"COC(=O)N1c2ccc(-c3cnn(C4CC4)c3)c(Oc3ccccc3Cl)c2CC[C@@H]1C [I-215, (S)-methyl 5-(2-chlorophenoxy)-6-(1-cyclopropyl-1H-pyrazol-4-yl)-2-methyl-3,4-dihydroquinoline-1(2H)-carboxylate]",50 to 500 nM,1000 to 10000 nM,500 to 1000 nM
"COC(=O)N1c2ccc(-c3cnn(C4CC4)c3)c(Oc3ccc(C(N)=O)cc3)c2CC[C@@H]1C [I-216, (S)-methyl 5-(4-carbamoylphenoxy)-6-(1-cyclopropyl-1H-pyrazol-4-yl)-2-methyl-3,4-dihydroquinoline-1(2H)-carboxylate]",< 50 nM,100 to 1000 nM,< 500 nM
"CC(=O)N1c2ccc(-c3cnn(C4CC4)c3)c(Oc3ccc(C#N)cc3)c2CC[C@@H]1C [I-217, (S)-4-(1-acetyl-6-(1-cyclopropyl-1H-pyrazol-4-yl)-2-methyl-1,2,3,4-tetrahydroquinolin-5-yloxy)benzonitrile]",< 50 nM,100 to 1000 nM,< 500 nM
"C[C@H]1CCc2c(ccc(-c3ccn[nH]3)c2Oc2ccccc2)N1C(=O)C1CC1 [I-218, (S)-cyclopropyl(2-methyl-5-phenoxy-6-(1H-pyrazol-5-yl)-3,4-dihydroquinolin-1(2H)-yl)methanone]",< 50 nM,1000 to 10000 nM,< 500 nM
"C[C@H]1CCc2c(ccc(-c3cnn(C)c3)c2Oc2ccccc2)N1C(=O)C1CC1 [I-224, (S)-cyclopropyl(2-methyl-6-(1-methyl-1H-pyrazol-4-yl)-5-phenoxy-3,4-dihydroquinolin-1(2H)-yl)methanone]",< 50 nM,100 to 1000 nM,< 500 nM
"CC(=O)N1c2ccc(-c3cnn(C4CC4)c3)c(Oc3ccc(F)cc3)c2CC[C@@H]1C [I-225, (S)-1-(6-(1-cyclopropyl-1H-pyrazol-4-yl)-5-(4-fluorophenoxy)-2-methyl-3,4-dihydroquinolin-1(2H)-yl)ethanone]",< 50 nM,100 to 1000 nM,< 500 nM
"CC(=O)N1c2ccc(-c3cnn(C4CC4)c3)c(Oc3ccc(Cl)cc3)c2CC[C@@H]1C [I-226, (S)-1-(5-(4-chlorophenoxy)-6-(1-cyclopropyl-1H-pyrazol-4-yl)-2-methyl-3,4-dihydroquinolin-1(2H)-yl)ethanone]",50 to 500 nM,100 to 1000 nM,< 500 nM
"COC(=O)N1c2ccc(-c3cnn(C4CCN(C)CC4)c3)c(Oc3ccc(Cl)cc3C#N)c2CC[C@@H]1C [I-245, methyl (S)-5-(4-chloro-2-cyanophenoxy)-2-methyl-6-(1-(1-methylpiperidin-4-yl)-1H-pyrazol-4-yl)-3,4-dihydroquinoline-1(2H)-carboxylate]",< 50 nM,100 to 1000 nM and ≥ 10000 nM,< 500 nM
"CC(=O)N1c2ccc(-c3cnn(C4CCN(C)CC4)c3)c(Oc3ccccc3C#N)c2CC[C@@H]1C [I-246, (S)-2-((1-acetyl-2-methyl-6-(1-(1-methylpiperidin-4-yl)-1H-pyrazol-4-yl)-1,2,3,4-tetrahydroquinolin-5-yl)oxy)benzonitrile]",< 50 nM,100 to 1000 nM,< 500 nM
"COC(=O)N1c2ccc(-c3cnn(C4CCN(C)C4)c3)c(OC3CCC3)c2CC[C@@H]1C (stereo partly drawn) [I-247, (2S)-methyl 5-cyclobutoxy-2-methyl-6-(1-(1-methylpyrrolidin-3-yl)-1H-pyrazol-4-yl)-3,4-dihydroquinoline-1 (211)-carboxylate]",50 to 500 nM,100 to 1000 nM,< 500 nM
"COC(=O)N1c2ccc(-c3cnn(C4CCN(C)C4)c3)c(Oc3ccc(F)cc3)c2CC[C@@H]1C (stereo partly drawn) [I-249, (2S)-methyl 5-(4-fluorophenoxy)-2-methyl-6-(1-(1-methylpyrrolidin-3-yl)-1H-pyrazol-4-yl)-3,4-dihydroquinoline-1(2H)-carboxylate]",< 50 nM,100 to 1000 nM,< 500 nM
"CCN1CC(Oc2c(-c3cnn(C4CC4)c3)ccc3c2CC[C@H](C)N3C(=O)OC)C1 [I-251, (S)-methyl 6-(1-cyclopropyl-1H-pyrazol-4-yl)-5-(1-ethylazetidin-3-yloxy)-2-methyl-3,4-dihydroquinoline-1(2H)-carboxylate]",50 to 500 nM,1000 to 10000 nM,> 1000 nM
"COC(=O)N1c2ccc(-c3cnn(C4CC4)c3)c(OC3CN(C(C)C)C3)c2CC[C@@H]1C [I-252, (S)-methyl 6-(1-cyclopropyl-1H-pyrazol-4-yl)-5-(1-isopropylazetidin-3-yloxy)-2-methyl-3,4-dihydroquinoline-1(2H)-carboxylate]",≥ 500 nM,1000 to 10000 nM,> 1000 nM
"CCN1CC(Oc2c(-c3cnn(C4CC4)c3)ccc3c2CC[C@H](C)N3C(C)=O)C1 [I-253, (S)-1-(6-(1-cyclopropyl-1H-pyrazol-4-yl)-5-(1-ethylazetidin-3-yloxy)-2-methyl-3,4-dihydroquinolin-1(2H)-yl)ethanone]",≥ 500 nM,≥ 10000 nM,> 1000 nM
"CC(=O)N1c2ccc(-c3cnn(C4CC4)c3)c(OC3CN(C(C)C)C3)c2CC[C@@H]1C [I-254, (S)-1-(6-(1-cyclopropyl-1H-pyrazol-4-yl)-5-(1-isopropylazetidin-3-yloxy)-2-methyl-3,4-dihydroquinolin-1(2H)-yl)ethanone]",50 to 500 nM,1000 to 10000 nM,> 1000 nM
"CC(=O)N1c2ccc(-c3cnn(C4CC4)c3)c(Oc3cc(C)ccn3)c2CC[C@@H]1C [I-255, 1-[(2S)-6-(1-cyclopropyl-1H-pyrazol-4-yl)-2-methyl-5-[(4-methylpyridin-2-yl)oxy]-1,2,3,4-tetrahydroquinolin-1-yl]ethan-1-one]",< 50 nM,100 to 1000 nM,< 500 nM
"CC(=O)N1c2ccc(-c3cnn(C4CC4)c3)c(Oc3cccc(C)n3)c2CC[C@@H]1C [I-256, (S)-1-(6-(1-cyclopropyl-1H-pyrazol-4-yl)-2-methyl-5-(6-methylpyridin-2-yloxy)-3,4-dihydroquinolin-1 (2H)-yl)ethanone]",< 50 nM,100 to 1000 nM,< 500 nM
"CC(=O)N1c2ccc(-c3cnn(C4CC4)c3)c(Oc3nccc4ccccc34)c2CC[C@@H]1C [I-257, (S)-1-(6-(1-cyclopropyl-1H-pyrazol-4-yl)-5-(isoquinolin-1-yloxy)-2-methyl-3,4-dihydroquinolin-1(2H)-yl)ethanone]",< 50 nM,1000 to 10000 nM,< 500 nM
"CC(=O)N1c2ccc(-c3cnn(C4CCNCC4)c3)c(Oc3ccccc3F)c2CC[C@@H]1C [I-258, (S)-1-(5-(2-fluorophenoxy)-2-methyl-6-(1-(piperidin-4-yl)-1H-pyrazol-4-yl)-3,4-dihydroquinolin-1 (2H)-yl)ethanone]",< 50 nM,100 to 1000 nM,< 500 nM
"COC(=O)N1c2ccc(-c3cnn(C4CCNCC4)c3)c(Oc3ccccc3F)c2CC[C@@H]1C [I-259, (S)-methyl 5-(2-fluorophenoxy)-2-methyl-6-(1-(piperidin-4-yl)-1H-pyrazol-4-yl)-3,4-dihydroquinoline-1(2H)-carboxylate]",< 50 nM,100 to 1000 nM,< 500 nM
"COC(=O)N1c2ccc(-c3cnn(C4CCNCC4)c3)c(Oc3ccc(F)cc3F)c2CC[C@@H]1C [I-263, (S)-methyl 5-(2,4-difluorophenoxy)-2-methyl-6-(1-(piperidin-4-yl)-1H-pyrazol-4-yl)-3,4-dihydroquinoline-1(2H)-carboxylate]",< 50 nM,100 to 1000 nM,< 500 nM
